Experimental data published in ChEMBL document CHEMBL3272053, “(exo, exo)-2-Aryltropane-3-carboxylic esters, hypoglycemic agents with accompanying analgesic activity” (J Med Chem, 1978).

Tests used:
[1] = system: Rattus norvegicus; assay: Hypoglycemic activity in fasted Sprague-Dawley rat assessed as reduction of blood glucose level at 88 mg/kg, po measured at 1.5 hrs relative to control; assay type: functional; set-up: scale not given: the % may be the effect or the level left
[2] = system: Rattus norvegicus; assay: Narcotic analgesic activity in po dosed fasted Sprague-Dawley rat measured at 60 mins by D'Amour-Smith tail-flick test; assay type: functional; conditions: Rattus norvegicus, Sprague-Dawley, Tail, po, 1 h; read-out: ED50
[3] = system: Rattus norvegicus; assay: Narcotic analgesic activity in sc dosed fed Sprague-Dawley rat measured at 30 mins by D'Amour-Smith tail-flick test; assay type: functional
[4] = system: Canis familiaris; assay: Toxicity in dog assessed as effect on pulmonary ventilation rate at 150 mg/kg, im measured after 4 hrs; assay type: organism-based, Canis lupus familiaris; set-up: dose 150 mg/kg, route intramuscular; conditions: in vivo
[5] = system: Rattus norvegicus; assay: Hypoglycemic activity in fasted Sprague-Dawley rat assessed as reduction of blood glucose level at 88 mg/kg, po measured at 0.5 hrs relative to control; assay type: functional; set-up: scale not given: the % may be the effect or the level left
[6] = system: Rattus norvegicus; assay: Hypoglycemic activity in glucose loaded Sprague-Dawley rat assessed as reduction of blood glucose level at 88 mg/kg, po measured at 0.5 hrs relative to control; assay type: functional; set-up: scale not given: the % may be the effect or the level left
[7] = system: Canis familiaris; assay: Toxicity in nalorphine-treated dog assessed as reduction of pulmonary ventilation rate at 100 mg/kg, im measured within 5 mins; assay type: organism-based, Canis lupus familiaris; set-up: dose 100 mg/kg, route intramuscular; conditions: in vivo
[8] = system: Rattus norvegicus; assay: Toxicity in po dosed Sprague-Dawley rat assessed as catalepsy administered 15 mins prior to testing; assay type: organism-based; conditions: in vivo, 0.25 h
[9] = system: Rattus norvegicus; assay: Hypoglycemic activity in glucose/glycogen loaded Sprague-Dawley rat assessed as reduction of blood glucose level at 88 mg/kg, po measured at 1.5 hrs relative to control; assay type: functional; set-up: scale not given: the % may be the effect or the level left
[10] = system: Rattus norvegicus; assay: Hypoglycemic activity in fasted Sprague-Dawley rat assessed as reduction of blood glucose level at 88 mg/kg, po measured at 1 hr relative to control; assay type: functional; set-up: scale not given: the % may be the effect or the level left
[11] = system: Rattus norvegicus; assay: Hypoglycemic activity in glucose/glycogen loaded Sprague-Dawley rat assessed as reduction of blood glucose level at 88 mg/kg, po measured at 0.5 hrs relative to control; assay type: functional; set-up: scale not given: the % may be the effect or the level left
[12] = system: Mus musculus; assay: Analgesic activity in po dosed Swiss-Webster mouse assessed as reduction of acetylcholine-induced writhing; assay type: functional
[13] = system: Rattus norvegicus; assay: Toxicity in Sprague-Dawley rat assessed as catalepsy at 32 mg/kg, po administered 15 mins prior to testing; assay type: organism-based; set-up: dose 32 mg/kg, route oral; conditions: in vivo, 0.25 h
[14] = system: Rattus norvegicus; assay: Hypoglycemic activity in glucose/glycogen loaded Sprague-Dawley rat assessed as reduction of glucose level per 100 mL of blood at 88 mg/kg, po measured at 2 hrs (reference value: 102 +/- 7 mg/100 mL); assay type: functional
[15] = system: Rattus norvegicus; assay: Hypoglycemic activity in fasted Sprague-Dawley rat assessed as reduction of blood glucose level at 88 mg/kg, po measured at 2 hrs relative to control; assay type: functional; set-up: scale not given: the % may be the effect or the level left
[16] = system: Mus musculus; assay: Analgesic activity in sc dosed Swiss-Webster mouse assessed as reduction of acetylcholine-induced writhing; assay type: functional; conditions: Mus musculus, Swiss-Webster, sc; read-out: ED50
[17] = system: Canis familiaris; assay: Toxicity in dog assessed as stopped breathing at 100 mg/kg, im measured after 3 mins; assay type: organism-based, Canis lupus familiaris; set-up: dose 100 mg/kg, route intramuscular; conditions: in vivo, 0.05 h
[18] = system: Mus musculus; assay: Toxicity in naloxone hydrochloride-treated Swiss-Webster mouse assessed as stimulation of straub tail at 300 mg/kg, po after 15 to 25 mins; assay type: organism-based; set-up: dose 300 mg/kg, route oral; conditions: in vivo
[19] = system: Canis familiaris; assay: Toxicity in nalorphine-treated dog assessed as stopped breathing at 100 mg/kg, im measured after 3 mins; assay type: organism-based, Canis lupus familiaris; set-up: dose 100 mg/kg, route intramuscular; conditions: in vivo, 0.05 h
[20] = system: Rattus norvegicus; assay: Toxicity in Sprague-Dawley rat assessed as catalepsy at 32 mg/kg, po administered 15 mins prior to testing in presence of naloxone hydrochloride; assay type: organism-based; set-up: dose 32 mg/kg, route oral; conditions: in vivo, 0.25 h
[21] = system: Rattus norvegicus; assay: Toxicity in Sprague-Dawley rat assessed as induction of physical dependence by measuring occurrence of abstinence signs at 100 mg/kg/24 hrs, ip administered as 2 days of infusion prior to naloxone-precipitated withdrawal; assay type: organism-based; set-up: route intraperitoneal; conditions: in vivo
[22] = system: Rattus norvegicus; assay: Hypoglycemic activity in glucose loaded Sprague-Dawley rat assessed as reduction of blood glucose level at 50 mg/kg, po measured at 2 hrs relative to control; assay type: functional; set-up: scale not given: the % may be the effect or the level left
[23] = system: Rattus norvegicus; assay: Hypoglycemic activity in glucose loaded Sprague-Dawley rat assessed as reduction of blood glucose level at 88 mg/kg, po measured at 1 hr relative to control; assay type: functional; set-up: scale not given: the % may be the effect or the level left
[24] = system: Rattus norvegicus; assay: Hypoglycemic activity in glucose loaded Sprague-Dawley rat assessed as reduction of blood glucose level at 88 mg/kg, po measured at 1.5 hrs relative to control; assay type: functional; set-up: scale not given: the % may be the effect or the level left
[25] = system: Canis familiaris; assay: Toxicity in dog assessed as reduction of pulmonary ventilation rate at 100 mg/kg, im measured within 5 mins; assay type: organism-based, Canis lupus familiaris; set-up: dose 100 mg/kg, route intramuscular; scale not given: the % may be the effect or the level left; conditions: in vivo
[26] = system: Rattus norvegicus; assay: Toxicity in Sprague-Dawley rat assessed as induction of physical dependence by measuring occurrence of abstinence signs administered as infusion at 0.3 log interval doses up to maximum tolerated dose 800 mg/kg/24 hrs, ip for 6 days prior to abrupt withdrawal; assay type: organism-based; set-up: route intraperitoneal; conditions: in vivo
[27] = system: Rattus norvegicus; assay: Hypoglycemic activity in glucose loaded Sprague-Dawley rat assessed as reduction of glucose level per 100 mL of blood at 88 mg/kg, po measured at 2 hrs (reference value: 99 +/- 2 mg/100 mL); assay type: functional
[28] = system: Rattus norvegicus; assay: Hypoglycemic activity in fasted Sprague-Dawley rat assessed as reduction of blood glucose level at 50 mg/kg, po measured at 1 hr relative to control; assay type: functional; set-up: scale not given: the % may be the effect or the level left
[29] = system: Rattus norvegicus; assay: Toxicity in Sprague-Dawley rat assessed as induction of morphine physical dependence by measuring occurrence of abstinence signs at 32 times of morphine dose 12.5 mg/kg/24 hrs administered on day 6 post morphine withdrawal; assay type: organism-based; conditions: in vivo
[30] = system: Rattus norvegicus; assay: Hypoglycemic activity in glucose loaded Sprague-Dawley rat assessed as reduction of blood glucose level at 50 mg/kg, po measured at 1.5 hrs relative to control; assay type: functional; set-up: scale not given: the % may be the effect or the level left
[31] = Drug metabolism in glucose loaded Sprague-Dawley rat urine assessed as formation of (7)- (exo,exo)-methyl 2-(thiophen-2-yl)-8-azabicyclo[3.2.1]octane-3-carboxylate hydrochloride at 20 mg, po administered 3 to 6 hrs measured for 24 hrs by TLC/mass spectrographic analysis; assay type: ADME, organism-based; conditions: in vivo
[32] = system: Rattus norvegicus; assay: Hypoglycemic activity in glucose loaded Sprague-Dawley rat assessed as reduction of blood glucose level at 50 mg/kg, po measured at 1 hr relative to control; assay type: functional; set-up: scale not given: the % may be the effect or the level left
[33] = system: Rattus norvegicus; assay: Hypoglycemic activity in fasted Sprague-Dawley rat assessed as reduction of blood glucose level at 50 mg/kg, po measured at 2 hrs relative to control; assay type: functional; set-up: scale not given: the % may be the effect or the level left
[34] = system: Rattus norvegicus; assay: Hypoglycemic activity in fasted Sprague-Dawley rat assessed as reduction of blood glucose level at 50 mg/kg, po measured at 0.5 hrs relative to control; assay type: functional; set-up: scale not given: the % may be the effect or the level left
[35] = system: Canis familiaris; assay: Toxicity in dog assessed as reduction of pulmonary ventilation rate at 100 mg/kg, im measured within 20 mins relative to control; assay type: organism-based, Canis lupus familiaris; set-up: dose 100 mg/kg, route intramuscular; scale not given: the % may be the effect or the level left; conditions: in vivo
[36] = system: Rattus norvegicus; assay: Hypoglycemic activity in Sprague-Dawley rat assessed as reduction of blood glucose level at 88 mg/kg, po by glucagon-impaired glucose disposal test relative to control; assay type: functional; set-up: scale not given: the % may be the effect or the level left; conditions: 88 mg/kg
[37] = system: Rattus norvegicus; assay: Hypoglycemic activity in glucose/glycogen loaded Sprague-Dawley rat assessed as reduction of blood glucose level at 88 mg/kg, po measured at 1 hr relative to control; assay type: functional; set-up: scale not given: the % may be the effect or the level left
[38] = system: Mus musculus; assay: Toxicity in Swiss-Webster mouse assessed as mortality at 75 mg/kg, sc; assay type: organism-based; set-up: dose 75 mg/kg, route subcutaneous; conditions: in vivo
[39] = system: Rattus norvegicus; assay: Hypoglycemic activity in glucose loaded Sprague-Dawley rat assessed as reduction of glucose level per 100 mL of blood at 50 mg/kg, po measured at 0.5 hrs (reference value: 176 +/- 8 mg/100 mL); assay type: functional
[40] = system: Canis familiaris; assay: Toxicity in nalorphine-treated dog assessed as reduction of pulmonary ventilation rate at 100 mg/kg, im measured within 1 min; assay type: organism-based, Canis lupus familiaris; set-up: dose 100 mg/kg, route intramuscular; conditions: in vivo
[41] = system: Canis familiaris; assay: Toxicity in dog assessed as respiratory depression at 150 mg/kg, im; assay type: organism-based, Canis lupus familiaris; set-up: dose 150 mg/kg, route intramuscular; conditions: in vivo
[42] = system: Rattus norvegicus; assay: Narcotic analgesic activity in po dosed fasted Sprague-Dawley rat measured at 15 mins by D'Amour-Smith tail-flick test; assay type: functional; conditions: 0.25 h
[43] = system: Rattus norvegicus; assay: Toxicity in Sprague-Dawley rat assessed as severe convulsion at 240 mg/kg, sc; assay type: organism-based; set-up: dose 240 mg/kg, route subcutaneous; conditions: in vivo
[44] = system: Rattus norvegicus; assay: Toxicity in morphine-treated Sprague-Dawley rat assessed as catalepsy at 32 mg/kg, po administered 15 mins prior to testing; assay type: organism-based; set-up: dose 32 mg/kg, route oral; conditions: in vivo, 0.25 h
[45] = system: Rattus norvegicus; assay: Hypoglycemic activity in fasted Sprague-Dawley rat assessed as reduction of blood glucose level at 50 mg/kg, po measured at 1.5 hrs relative to control; assay type: functional; set-up: scale not given: the % may be the effect or the level left
[46] = system: Mus musculus; assay: Toxicity in po dosed Swiss-Webster mouse assessed as stimulation of straub tail after 15 to 25 mins; assay type: organism-based; conditions: in vivo

COC(=O)[C@H]1C[C@H]2CC[C@H]([C@H]1c1cccs1)N2C.Cl (racemic)
Activity [1]: 27% | ED50 [2]: 83 mg/kg | ED50 [3]: 100 mg/kg | Activity [4]: Non-toxic | Activity [5]: 45% | Activity [6]: 55% | Activity [7]: Non-toxic | ED50 [8]: 18.6 mg/kg | Activity [9]: 22% | Activity [10]: 38% | Activity [11]: 62% | ED50 [12]: 35 mg/kg | Activity [13]: 65% | Activity [14]: 104 mg | Activity [15]: 24% | ED50 [16]: 12 mg/kg | Activity [17]: Non-toxic | Activity [18]: Non-toxic | Activity [19]: Non-toxic | Activity [20]: Non-toxic | Activity [21]: Non-toxic | Activity [22]: 50% | Activity [23]: 55% | Activity [24]: 32% | Activity [25]: 65% | Activity [26]: Non-toxic | Activity [27]: 100 mg | Activity [28]: 40% | Activity [29]: Non-toxic | Activity [30]: 53% | Drug metabolism [31]: metabolite_detected | Activity [32]: 40% | Activity [33]: 37% | Activity [34]: 34% | Activity [35]: 40% | Activity [36]: 63% | Activity [37]: 38% | Activity [38]: Non-toxic | Activity [39]: 172 mg | Activity [40]: Non-toxic | Activity [41]: Non-toxic | ED50 [42]: 29 mg/kg | Activity [43]: Toxic | Activity [44]: 20% | Activity [45]: 43% | ED50 [46]: 138 mg/kg
